Among the data in patent publication US9351974B2, “Substituted pteridinones for the treatment of cancer” (OSI Pharmaceuticals, LLC, priority 2011, dated 2016) are IC50 values, retold here.

pIC50: −log10 of the molar value. A value given as a limit tells only on which side of the number the result lay.

For the experiment, the target named is T1, His-tagged full-length RSK2 (RPS6KA3) (Homo sapiens, UniProt P51812).
T1 construct: His-tagged full-length RSK2 (RPS6KA3, Invitrogen PV3323); His; purchased Invitrogen PV3323
T1 sequence (P51812 whole entry): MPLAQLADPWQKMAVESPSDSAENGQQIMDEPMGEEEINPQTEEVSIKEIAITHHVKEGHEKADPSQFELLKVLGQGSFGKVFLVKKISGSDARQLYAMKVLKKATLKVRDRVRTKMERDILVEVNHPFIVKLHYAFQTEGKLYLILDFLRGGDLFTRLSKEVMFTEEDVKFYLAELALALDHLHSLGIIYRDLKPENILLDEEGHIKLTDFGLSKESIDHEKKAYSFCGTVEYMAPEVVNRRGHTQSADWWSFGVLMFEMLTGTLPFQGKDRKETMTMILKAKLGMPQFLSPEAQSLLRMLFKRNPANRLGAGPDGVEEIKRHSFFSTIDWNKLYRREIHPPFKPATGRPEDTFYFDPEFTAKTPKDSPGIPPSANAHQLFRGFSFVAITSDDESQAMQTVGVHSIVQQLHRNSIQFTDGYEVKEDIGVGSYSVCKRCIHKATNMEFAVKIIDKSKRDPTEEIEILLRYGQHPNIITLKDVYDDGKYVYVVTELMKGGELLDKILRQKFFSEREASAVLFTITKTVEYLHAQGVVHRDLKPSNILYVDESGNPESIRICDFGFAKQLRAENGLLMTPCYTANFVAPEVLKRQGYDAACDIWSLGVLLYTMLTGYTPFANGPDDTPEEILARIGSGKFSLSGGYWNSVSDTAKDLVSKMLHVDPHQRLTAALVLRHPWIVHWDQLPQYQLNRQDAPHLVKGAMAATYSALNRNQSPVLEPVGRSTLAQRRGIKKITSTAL
The experiment can be described thus: RSK2 Omnia Assay for compound IC50 determination. Type of experiment: biochemical. The following applies: ATP 15 μM, n=2, read-out: Mean RSK2 Biochem IC50. The method in brief:
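Initial-rate slopes from continuous kinetic reads were fitted to a four-parameter equation for IC50 (n=2). Ki was then derived by Cheng-Prusoff assuming ATP-competitive inhibition. Reactions contained 15 μM ATP (Km 16.3 μM), 5 μM Omnia ST Peptide 6, and […] in 50 mM HEPES pH 7.5, 10 mM MgCl2, 1 mM DTT, 1% DMSO. Compounds spanned 11 threefold steps, […] final.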
For `C[C@@H]1C(=O)N(c2cccc(F)c2)c2cnc(Nc3cc(F)c4[nH]ncc4c3)nc2N1C1CCCCC1` [compound 137, (7R)-8-cyclohexyl-2-[(7-fluoro-1H-indazol-5-yl)amino]-5-(3-fluorophenyl)-7-methyl-7,8-dihydropteridin-6(5H)-one], the pIC50 (in general, the IC50 on a negative log10 scale, so that one unit is a factor of ten) was at least 7.00.
With `COc1ccc(N2C(=O)[C@@H](C)N(C3CCCCC3)c3nc(Nc4cc(F)c5[nH]ncc5c4)ncc32)cn1` [compound 138, (7R)-8-cyclohexyl-2-[(7-fluoro-1H-indazol-5-yl)amino]-5-(6-methoxypyridin-3-yl)-7-methyl-7,8-dihydropteridin-6(5H)-one] the figure was at least 7.00; with `C[C@@H]1C(=O)N(c2ccc(N3CCN(C)CC3)nc2)c2cnc(Nc3cc(F)c4[nH]ncc4c3)nc2N1C1CCCCC1` [compound 139, (7R)-8-cyclohexyl-2-[(7-fluoro-1H-indazol-5-yl)amino]-7-methyl-5-[6-(4-methylpiperazin-1-yl)pyridin-3-yl]-7,8-dihydropteridin-6(5H)-one], at least 7.00; with `CC[C@@H]1C(=O)N(c2cccc(C#N)c2)c2cnc(Nc3ccc4[nH]ncc4c3)nc2N1C1CCCC1` [compound 140, 3-[(7R)-8-cyclopentyl-7-ethyl-2-(1H-indazol-5-ylamino)-6-oxo-7,8-dihydropteridin-5(6H)-yl]benzonitrile], at least 7.00.
On to `C[C@@H]1C(=O)N(c2ccc(N3CCCC3)nc2)c2cnc(Nc3cc(F)c4[nH]ncc4c3)nc2N1C1CCCCC1` [compound 141, (7R)-8-cyclohexyl-2-[(7-fluoro-1H-indazol-5-yl)amino]-7-methyl-5-[6-(pyrrolidin-1-yl)pyridin-3-yl]-7,8-dihydropteridin-6(5H)-one], for which the pIC50 was at least 7.00.
The same measure for `C[C@@H]1C(=O)N(c2ccc(N3CCCCC3)nc2)c2cnc(Nc3cc(F)c4[nH]ncc4c3)nc2N1C1CCCCC1` [compound 142, (7R)-8-cyclohexyl-2-[(7-fluoro-1H-indazol-5-yl)amino]-7-methyl-5-[6-(piperidin-1-yl)pyridin-3-yl]-7,8-dihydropteridin-6(5H)-one]: at least 7.00.
The same measure for `C[C@@H]1C(=O)N(c2ccc(N(C)C)nc2)c2cnc(Nc3cc(F)c4[nH]ncc4c3)nc2N1C1CCCCC1` [compound 143, (7R)-8-cyclohexyl-5-[6-(dimethylamino)pyridin-3-yl]-2-[(7-fluoro-1H-indazol-5-yl)amino]-7-methyl-7,8-dihydropteridin-6(5H)-one]: at least 7.00; for `C[C@@H]1C(=O)N(c2cccc(C#N)c2)c2cnc(Nc3ccc4[nH]nc(F)c4c3F)nc2N1C1CCCCC1` [compound 144, 3-[(7R)-8-cyclohexyl-2-[(3,4-difluoro-1H-indazol-5-yl)amino]-7-methyl-6-oxo-7,8-dihydropteridin-5(6H)-yl]benzonitrile]: at least 7.00.
In the case of `C[C@@H]1C(=O)N(c2cccc(C#N)c2)c2cnc(Nc3cc(F)c4c(c3)CC(=O)N4)nc2N1C1CCCCC1` [compound 145, 3-[(7R)-8-cyclohexyl-2-[(7-fluoro-2-oxo-2,3-dihydro-1H-indol-5-yl)amino]-7-methyl-6-oxo-7,8-dihydropteridin-5(6H)-yl]benzonitrile], the pIC50 is at least 7.00.
As to `C[C@@H]1C(=O)N(c2cccc(C#N)c2)c2cnc(Nc3cc(F)c4[nH]nc(F)c4c3F)nc2N1C1CCCCC1` [compound 146, 3-[(7R)-8-cyclohexyl-7-methyl-6-oxo-2-[(3,4,7-trifluoro-1H-indazol-5-yl)amino]-7,8-dihydropteridin-5(6H)-yl]benzonitrile], the pIC50 was at least 7.00.
For the compound `C[C@@H]1C(=O)N(c2ccc(N3CCC(O)CC3)nc2)c2cnc(Nc3cc(F)c4[nH]ncc4c3)nc2N1C1CCCCC1` [compound 147, (7R)-8-cyclohexyl-2-[(7-fluoro-1H-indazol-5-yl)amino]-5-[6-(4-hydroxypiperidin-1-yl)pyridin-3-yl]-7-methyl-7,8-dihydropteridin-6(5H)-one], the negative-log IC50 (pIC50) was at least 7.00.
With `COc1ccc(N2C(=O)[C@@H](C)N(C3CCCCC3)c3nc(Nc4ccc(C(=O)O)cc4)ncc32)cc1OC` [compound 148, 4-{[(7R)-8-cyclohexyl-5-(3,4-dimethoxyphenyl)-7-methyl-6-oxo-5,6,7,8-tetrahydropteridin-2-yl]amino}benzoic acid] the figure was at least 7.00; with `C[C@@H]1C(=O)N(c2cccc(C#N)c2)c2cnc(Nc3ccc4[nH]c(=O)oc4c3)nc2N1C1CCCCC1` [compound 149, 3-[(7R)-8-cyclohexyl-7-methyl-6-oxo-2-[(2-oxo-2,3-dihydro-1,3-benzoxazol-6-yl)amino]-7,8-dihydropteridin-(6H)-yl]benzonitrile], at least 7.00; with `COc1ccc(N2C(=O)[C@@H](C)N(C3CCCCC3)c3nc(Nc4ccc5[nH]c(=O)oc5c4)ncc32)cc1OC` [compound 150, (7R)-8-cyclohexyl-5-(3,4-dimethoxyphenyl)-7-methyl-2-[(2-oxo-2,3-dihydro-1,3-benzoxazol-6-yl)amino]-7,8-dihydropteridin-6(5H)-one], at least 7.00.
The same measure for `C[C@@H]1C(=O)N(c2cccnc2)c2cnc(Nc3ccc4[nH]c(=O)oc4c3)nc2N1C1CCCCC1` [compound 151, (7R)-8-cyclohexyl-7-methyl-2-[(2-oxo-2,3-dihydro-1,3-benzoxazol-6-yl)amino]-5-(pyridin-3-yl)-7,8-dihydropteridin-6(5H)-one]: at least 7.00.
The same measure for `C[C@@H]1C(=O)N(c2cccc(C#N)c2)c2cnc(Nc3cnc4[nH]ncc4c3)nc2N1C1CCCCC1` [compound 152, 3-[(7R)-8-cyclohexyl-7-methyl-6-oxo-2-(1H-pyrazolo[3,4-b]pyridin-5-ylamino)-7,8-dihydropteridin-5(6H)-yl]benzonitrile]: at least 7.00; for `COc1ccc(N2C(=O)[C@@H](C)N(C3CCCCC3)c3nc(Nc4cnc5[nH]ncc5c4)ncc32)cc1OC` [compound 153, (7R)-8-cyclohexyl-5-(3,4-dimethoxyphenyl)-7-methyl-2-(1H-pyrazolo[3,4-B]pyridin-5-ylamino)-7,8-dihydropteridin-6(5H)-one]: at least 7.00; for `C[C@@H]1C(=O)N(c2cccnc2)c2cnc(Nc3cnc4[nH]ncc4c3)nc2N1C1CCCCC1` [compound 154, (7R)-8-cyclohexyl-7-methyl-2-(1H-pyrazolo[3,4-b]pyridin-5-ylamino)-5-(pyridin-3-yl)-7,8-dihydropteridin-6(5H)-one]: at least 7.00.
As for `C[C@@H]1C(=O)N(c2cccc(C#N)c2)c2cnc(Nc3ccc(C(=O)O)cc3)nc2N1C1CCCCC1` [compound 155, 4-{[(7R)-5-(3-cyanophenyl)-8-cyclohexyl-7-methyl-6-oxo-5,6,7,8-tetrahydropteridin-2-yl]amino}benzoic acid], the pIC50 is at least 7.00.
Turning to `C[C@@H]1C(=O)N(c2cccc(C#N)c2)c2cnc(Nc3ccccc3)nc2N1C1CCCCC1` [compound 156, 3-[(7R)-8-cyclohexyl-7-methyl-6-oxo-2-(phenylamino)-7,8-dihydropteridin-5(6H)-yl]benzonitrile], the pIC50 is 6.00 to 7.00.
With `C[C@@H]1C(=O)N(c2cccc(C#N)c2)c2cnc(Nc3ccc4[nH]nc(C#N)c4c3)nc2N1C1CCCCC1` [compound 157, 5-{[(7R)-5-(3-cyanophenyl)-8-cyclohexyl-7-methyl-6-oxo-5,6,7,8-tetrahydropteridin-2-yl]amino}-1H-indazole-3-carbonitrile] the figure was 6.00 to 7.00; with `C[C@@H]1C(=O)N(c2cccc(C#N)c2)c2cnc(Nc3cc(F)c(O)c(F)c3)nc2N1C1CCCCC1` [compound 158, 3-[(7R)-8-cyclohexyl-2-[(3,5-difluoro-4-hydroxyphenyl)amino]-7-methyl-6-oxo-7,8-dihydropteridin-5(6H)-yl]benzonitrile], at least 7.00.
For the compound `COc1ccc(N2C(=O)[C@@H](C)N(C3CCCCC3)c3nc(Nc4cc(F)c(O)c(F)c4)ncc32)cc1OC` [compound 159], the pIC50 is at least 7.00.
The same measure for `C[C@@H]1C(=O)N(c2cccnc2)c2cnc(Nc3cc(F)c(O)c(F)c3)nc2N1C1CCCCC1` [compound 160, (7R)-8-cyclohexyl-2-[(3,5-difluoro-4-hydroxyphenyl)amino]-7-methyl-5-(pyridin-3-yl)-7,8-dihydropteridin-(5H)-one.]: at least 7.00; for `C[C@@H]1C(=O)N(c2cccc(C#N)c2)c2cnc(Nc3ccc4c(c3)CNC4=O)nc2N1C1CCCCC1` [compound 161]: at least 7.00; for `COc1ccc(N2C(=O)[C@@H](C)N(C3CCCCC3)c3nc(NCc4ccncc4)ncc32)cc1OC` [compound 162]: below 6.00.
The same measure for `COc1ccc(N2C(=O)[C@@H](C)N(C3CCCCC3)c3nc(NCc4cn[nH]c4)ncc32)cc1OC` [compound 163]: below 6.00; for `COc1ccc(N2C(=O)[C@@H](C)N(C3CCCCC3)c3nc(Nc4cnc5[nH]ncc5c4)ncc32)cc1C#N` [compound 164, 5-[(7R)-8-cyclohexyl-7-methyl-6-oxo-2-(1H-pyrazolo[3,4-b]pyridin-5-ylamino)-7,8-dihydropteridin-5(6H)-yl]-2-methoxybenzonitrile]: at least 7.00; for `COc1ccc(N2C(=O)[C@@H](C)N(C3CCCCC3)c3nc(Nc4ccc5[nH]c(=O)oc5c4)ncc32)cc1C#N` [compound 165, 5-[(7R)-8-cyclohexyl-7-methyl-6-oxo-2-[(2-oxo-2,3-dihydro-1,3-benzoxazol-6-yl)amino]-7,8-dihydropteridin-5(6H)-yl]-2-methoxybenzonitrile]: at least 7.00.
With `C[C@@H]1C(=O)N(c2cccc(C#N)c2)c2cnc(Nc3ccc4c(=O)[nH]oc4c3)nc2N1C1CCCCC1` [compound 166, 3-[(7R)-8-cyclohexyl-7-methyl-6-oxo-2-[(3-oxo-2,3-dihydro-1,2-benzoxazol-6-yl)amino]-7,8-dihydropteridin-5(6H)-yl]benzonitrile] the figure was at least 7.00.
